The target in experiment [1] is human α2δ-1 subunit of Cav2.2 calcium channel (Homo sapiens (Human), UniProt P54289). Description: Binding assay to human α2δ-1 subunit of Cav2.2 calcium channel ([3H]-Gabapentin). The note with it: read-out: Ki (nM) α2δ-1. An outline of the steps: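 Radioactivity on dried GF/C filters quantified by scintillation after filtration and three cold Tris-HCl (pH 7.4) washes. Incubation ran 60 min at 27° C with [3H]-gabapentin; 10 μM pregabalin gave nonspecific binding.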

The target in experiment [2] is human norepinephrine transporter (NET) (Homo sapiens (Human), UniProt P23975). As to the kind of experiment: Binding assay to human norepinephrine transporter (NET) ([3H]-Nisoxetin). The following applies: Table 2, dual compounds; [3H]-Nisoxetin binding. An outline of the steps:
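NET-enriched membranes (5 μg) incubated with 5 nM [3H]-nisoxetin in 50 mM Tris-HCl, 120 mM NaCl, 5 mM KCl, pH 7.4, 60 min at 4 °C. Bound ligand separated by filtration on PEI-soaked GF/C and counted by scintillation; nonspecific binding defined with 1 μM competitor.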

The mark [3] stands for this setting: Table 2, dual compounds, [3H]-Gabapentin binding.
Where [4] appears, read: binding to α2δ-1, [3H]-Gabapentin.

Like-named read-outs stand apart in the source and are kept apart here.

human norepinephrine transporter (NET), sequence (P23975 whole entry): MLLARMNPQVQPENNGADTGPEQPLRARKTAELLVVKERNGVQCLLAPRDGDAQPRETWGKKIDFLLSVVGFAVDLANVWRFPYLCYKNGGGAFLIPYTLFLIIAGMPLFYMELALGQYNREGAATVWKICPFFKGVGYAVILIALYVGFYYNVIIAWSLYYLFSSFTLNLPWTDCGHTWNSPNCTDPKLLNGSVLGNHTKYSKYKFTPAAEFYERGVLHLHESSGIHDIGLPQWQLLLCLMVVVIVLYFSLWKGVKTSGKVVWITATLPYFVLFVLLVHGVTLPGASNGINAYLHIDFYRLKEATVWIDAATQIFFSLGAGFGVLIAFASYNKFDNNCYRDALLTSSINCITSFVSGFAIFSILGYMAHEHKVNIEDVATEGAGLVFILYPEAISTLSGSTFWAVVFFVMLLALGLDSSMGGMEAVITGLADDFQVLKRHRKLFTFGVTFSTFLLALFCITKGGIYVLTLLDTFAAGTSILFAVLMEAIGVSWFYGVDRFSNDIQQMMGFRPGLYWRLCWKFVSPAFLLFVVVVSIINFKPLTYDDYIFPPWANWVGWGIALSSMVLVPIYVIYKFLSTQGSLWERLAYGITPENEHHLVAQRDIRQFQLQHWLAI
human α2δ-1 subunit of Cav2.2 calcium channel, sequence (P54289 25-1103): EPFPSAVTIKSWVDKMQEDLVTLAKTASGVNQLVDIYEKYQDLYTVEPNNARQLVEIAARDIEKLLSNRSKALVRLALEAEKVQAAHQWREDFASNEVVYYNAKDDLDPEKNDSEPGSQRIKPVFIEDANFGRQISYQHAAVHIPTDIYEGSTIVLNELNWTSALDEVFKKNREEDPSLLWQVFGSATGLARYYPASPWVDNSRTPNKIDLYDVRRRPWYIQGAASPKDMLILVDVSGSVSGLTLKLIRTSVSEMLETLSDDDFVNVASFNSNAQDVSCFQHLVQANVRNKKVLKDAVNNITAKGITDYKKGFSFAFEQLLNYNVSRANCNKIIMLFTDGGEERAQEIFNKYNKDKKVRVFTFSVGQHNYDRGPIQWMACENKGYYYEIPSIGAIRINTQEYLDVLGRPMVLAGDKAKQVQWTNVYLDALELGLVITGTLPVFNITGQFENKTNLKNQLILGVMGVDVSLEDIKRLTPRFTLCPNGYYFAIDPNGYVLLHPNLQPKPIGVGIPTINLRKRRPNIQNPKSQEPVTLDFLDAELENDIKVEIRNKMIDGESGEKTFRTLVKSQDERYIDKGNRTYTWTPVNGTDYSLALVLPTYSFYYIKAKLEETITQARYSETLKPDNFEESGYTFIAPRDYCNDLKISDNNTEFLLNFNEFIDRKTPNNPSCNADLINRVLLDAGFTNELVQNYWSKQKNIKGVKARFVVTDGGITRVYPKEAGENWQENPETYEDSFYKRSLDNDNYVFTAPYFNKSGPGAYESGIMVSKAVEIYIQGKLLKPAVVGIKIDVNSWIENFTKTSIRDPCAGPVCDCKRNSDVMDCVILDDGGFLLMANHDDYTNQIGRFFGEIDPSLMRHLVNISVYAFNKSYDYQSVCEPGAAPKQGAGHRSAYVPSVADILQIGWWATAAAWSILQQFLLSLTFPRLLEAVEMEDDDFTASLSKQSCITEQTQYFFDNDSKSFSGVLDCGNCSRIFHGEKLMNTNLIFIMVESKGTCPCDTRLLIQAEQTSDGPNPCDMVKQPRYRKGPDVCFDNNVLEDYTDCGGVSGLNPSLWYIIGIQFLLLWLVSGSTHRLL

One may read the Ki as a dissociation constant, usually derived from enzyme kinetics or from competition with a known ligand. For the compound `CNCC[C@@H](OCc1cccc(N2CCN(C)c3ncncc3C2=O)c1)c1ccccc1` [Example 207, (R)-9-methyl-6-(3-((3-(methylamino)-1-phenylpropoxy)methyl)phenyl)-6,7,8,9-tetrahydro-5H-pyrimido[4,5-e][1,4]diazepin-5-one], the Ki in experiment [1] (setting [3]) is 500 to 3000 nM; in experiment [1] (setting [4]), 500 to 3000 nM; in experiment [2], 500 to 1000 nM.
`CNCCC(Oc1ccc(CN2CCN(C)c3nc(OC)ncc3C2=O)cc1)c1sccc1C` (stereo not drawn) [Example 388, 2-methoxy-9-methyl-6-(4-(3-(methylamino)-1-(3-methylthiophen-2-yl)propoxy)benzyl)-6,7,8,9-tetrahydro-5H-pyrimido[4,5-e][1,4]diazepin-5-one]: the Ki in experiment [1] (setting [3]) was over 3000 nM; in experiment [1] (setting [4]), over 3000 nM; in experiment [2], under 100 nM.
As for `CCc1ncc2c(n1)N(C)CCN(c1cccc(CO[C@H](CCNC)c3ccccc3)c1)C2=O` [Example 356, (R)-2-ethyl-9-methyl-6-(3-((3-(methylamino)-1-phenylpropoxy)methyl)phenyl)-6,7,8,9-tetrahydro-5H-pyrimido[4,5-e][1,4]diazepin-5-one], the Ki in experiment [1] (setting [3]) lay in the range of 500 to 3000 nM; in experiment [1] (setting [4]), 500 to 3000 nM; in experiment [2] it was 100 to 500 nM.
In the case of `CNCC[C@@H](OCc1cccc(N2CCN(C)c3nc(NC)ncc3C2=O)c1)c1ccccc1` [Example 197, (R)-9-methyl-2-(methylamino)-6-(3-((3-(methylamino)-1-phenylpropoxy)methyl)phenyl)-6,7,8,9-tetrahydro-5H-pyrimido[4,5-e][1,4]diazepin-5-one], the Ki lay within 500 to 3000 nM in experiment [1] (setting [3]), 500 to 3000 nM in experiment [1] (setting [4]) and 500 to 1000 nM in experiment [2].
`CNCCC(OCc1cccc(N2CCN(C)c3nc(SC)ncc3C2=O)c1)c1ccccc1` (stereo not drawn) [Example 163, 9-methyl-6-(3-((3-(methylamino)-1-phenylpropoxy)methyl)phenyl)-2-(methylthio)-6,7,8,9-tetrahydro-5H-pyrimido[4,5-e][1,4]diazepin-5-one]: the Ki in experiment [1] (setting [3]) lay within 500 to 3000 nM; in experiment [1] (setting [4]), 500 to 3000 nM; in experiment [2], 100 to 500 nM.
For the compound `CCNc1ncc2c(n1)N(C)CCN(c1ccc(COC(CCNC)c3cccs3)cc1)C2=O` (stereo not drawn) [Example 348, 2-(ethylamino)-9-methyl-6-(4-((3-(methylamino)-1-(thiophen-2-yl)propoxy)methyl)phenyl)-6,7,8,9-tetrahydro-5H-pyrimido[4,5-e][1,4]diazepin-5-one], the Ki was over 3000 nM in experiment [1] (setting [3]), over 3000 nM in experiment [1] (setting [4]) and 100 to 500 nM in experiment [2].
On to `CNCCC(Oc1cccc(N2CCN(C)c3nc(SC)ncc3C2=O)c1)c1ccccc1` (stereo not drawn) [Example 151, 9-methyl-6-(3-(3-(methylamino)-1-phenylpropoxy)phenyl)-2-(methylthio)-6,7,8,9-tetrahydro-5H-pyrimido[4,5-e][1,4]diazepin-5-one], for which the Ki was 500 to 3000 nM in experiment [1] (setting [3]), 500 to 3000 nM in experiment [1] (setting [4]) and under 100 nM in experiment [2].
As for `CNCCC(OCc1cccc(N2CCN(C)c3nc(C(F)(F)F)ncc3C2=O)c1)c1cccs1` (stereo not drawn) [Example 330, 9-methyl-6-(3-((3-(methylamino)-1-(thiophen-2-yl)propoxy)methyl)phenyl)-2-(trifluoromethyl)-6,7,8,9-tetrahydro-5H-pyrimido[4,5-e][1,4]diazepin-5-one], the Ki in experiment [1] (setting [3]) fell in the range of 500 to 3000 nM; in experiment [1] (setting [4]), 500 to 3000 nM; in experiment [2], 100 to 500 nM.
Regarding `CNCCC(Oc1cccc(N2CCN(C)c3cc(C)ncc3C2=O)c1)c1cccs1` (stereo not drawn) [Example 307, 1,8-dimethyl-4-(3-(3-(methylamino)-1-(thiophen-2-yl)propoxy)phenyl)-1,2,3,4-tetrahydro-5H-pyrido[4,3-e][1,4]diazepin-5-one], the Ki in experiment [1] (setting [3]), in experiment [1] (setting [4]) and in experiment [2] was 100 to 500 nM throughout.
Take `CNCC[C@@H](OCc1cccc(N2CCN(C)c3nc(N)ncc3C2=O)c1)c1ccccc1` [Example 195, (R)-2-amino-9-methyl-6-(3-((3-(methylamino)-1-phenylpropoxy)methyl)phenyl)-6,7,8,9-tetrahydro-5H-pyrimido[4,5-e][1,4]diazepin-5-one]: the Ki in experiment [1] (setting [3]) lay within 500 to 3000 nM; in experiment [1] (setting [4]) it was 100 to 500 nM; in experiment [2], 500 to 1000 nM.
The corresponding values for `CCc1ncc2c(n1)N(C)CCN(Cc1ccc(OC(CCNC)c3ccccc3)cc1)C2=O` (stereo not drawn) [Example 426, 2-ethyl-9-methyl-6-(4-(3-(methylamino)-1-phenylpropoxy)benzyl)-6,7,8,9-tetrahydro-5H-pyrimido[4,5-e][1,4]diazepin-5-one] are 500 to 3000 nM, 500 to 3000 nM and under 100 nM.
Consider `CCNc1cc2c(cn1)C(=O)N(c1cccc(COC(CCNC)c3ccccc3)c1)CCN2C` (stereo not drawn) [Example 199, 8-(ethylamino)-1-methyl-4-(3-((3-(methylamino)-1-phenylpropoxy)methyl)phenyl)-1,2,3,4-tetrahydro-5H-pyrido[4,3-e][1,4]diazepin-5-one], for which the Ki in experiment [1] (setting [3]) is 500 to 3000 nM; in experiment [1] (setting [4]), 500 to 3000 nM; in experiment [2] it was over 1000 nM.
As to `CCNc1ncc2c(n1)N(C)CCN(c1cccc(C(C)(C)CNC)c1)C2=O` [Example 173, 2-(ethylamino)-9-methyl-6-(3-(2-methyl-1-(methylamino)propan-2-yl)phenyl)-6,7,8,9-tetrahydro-5H-pyrimido[4,5-e][1,4]diazepin-5-one], the Ki in experiment [1] (setting [3]) was 500 to 3000 nM; in experiment [1] (setting [4]), 500 to 3000 nM; in experiment [2], over 1000 nM.
As for `CNCC[C@H](Oc1cccc(N2CCN(C)c3nc(SC)ncc3C2=O)c1)c1ccccc1` [Example 153, (S)-9-methyl-6-(3-(3-(methylamino)-1-phenylpropoxy)phenyl)-2-(methylthio)-6,7,8,9-tetrahydro-5H-pyrimido[4,5-e][1,4]diazepin-5-one], the Ki in experiment [1] (setting [3]) is over 3000 nM; in experiment [1] (setting [4]), over 3000 nM; in experiment [2], under 100 nM.
For `CNCCC(Oc1ccc(CN2CCN(C)c3nc(C)ncc3C2=O)cc1)c1ccccc1` (stereo not drawn) [Example 425, 2,9-dimethyl-6-(4-(3-(methylamino)-1-phenylpropoxy)benzyl)-6,7,8,9-tetrahydro-5H-pyrimido[4,5-e][1,4]diazepin-5-one], the Ki was over 3000 nM in experiment [1] (setting [3]), over 3000 nM in experiment [1] (setting [4]) and under 100 nM in experiment [2].
